This note sets out measurements from article PMC12155096 (International Journal of Molecular Sciences, 2025).

Broadly, the AC50 is the concentration giving half of the maximal activity seen.

Where two headings read alike, the source gives them in different places.

Among the targets are human CYP2D6 (Homo sapiens, UniProt P10635); CYP3A4 (Homo sapiens, UniProt P08684); human CYP2C9 (Homo sapiens, UniProt P11712); human CYP2C19 (Homo sapiens, UniProt P33261).
The next series has as its target T1, human CYP1A2 (Homo sapiens, UniProt P05177).
T1 sequence (P05177 1-516): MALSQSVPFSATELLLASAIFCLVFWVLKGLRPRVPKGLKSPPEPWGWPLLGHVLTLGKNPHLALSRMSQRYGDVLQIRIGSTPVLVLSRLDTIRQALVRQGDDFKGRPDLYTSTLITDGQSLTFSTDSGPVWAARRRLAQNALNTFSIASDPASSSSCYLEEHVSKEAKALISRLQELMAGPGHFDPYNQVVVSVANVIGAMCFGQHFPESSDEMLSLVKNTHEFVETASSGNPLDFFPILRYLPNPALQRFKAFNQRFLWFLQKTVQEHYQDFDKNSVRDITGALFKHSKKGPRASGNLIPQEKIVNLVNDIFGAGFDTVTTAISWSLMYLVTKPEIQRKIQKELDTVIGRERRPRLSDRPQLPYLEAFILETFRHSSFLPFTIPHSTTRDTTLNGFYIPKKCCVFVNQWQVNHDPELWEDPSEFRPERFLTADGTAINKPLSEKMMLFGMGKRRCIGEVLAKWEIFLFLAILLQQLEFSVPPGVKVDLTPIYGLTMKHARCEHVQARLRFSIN

Series [1] has as its target Photinus pyralis (firefly) luciferase (Photinus pyralis, UniProt P08659). Put plainly: biochemical. It is filed as biochemical.

Sequence of human CYP2C9 (P11712 whole entry): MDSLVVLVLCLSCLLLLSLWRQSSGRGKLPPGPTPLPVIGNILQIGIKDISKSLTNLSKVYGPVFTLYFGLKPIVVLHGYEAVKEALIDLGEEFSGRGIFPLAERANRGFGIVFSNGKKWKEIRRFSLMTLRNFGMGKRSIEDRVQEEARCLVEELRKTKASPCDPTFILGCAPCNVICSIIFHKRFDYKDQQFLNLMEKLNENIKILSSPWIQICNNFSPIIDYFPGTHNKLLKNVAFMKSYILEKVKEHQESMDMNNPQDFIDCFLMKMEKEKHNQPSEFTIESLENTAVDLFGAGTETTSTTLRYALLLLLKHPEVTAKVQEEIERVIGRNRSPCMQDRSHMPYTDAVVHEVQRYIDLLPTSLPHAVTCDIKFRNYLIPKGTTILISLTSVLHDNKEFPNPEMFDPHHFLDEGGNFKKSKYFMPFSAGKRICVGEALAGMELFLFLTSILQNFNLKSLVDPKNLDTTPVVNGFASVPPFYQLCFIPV
Sequence of Photinus pyralis (firefly) luciferase (P08659 whole entry): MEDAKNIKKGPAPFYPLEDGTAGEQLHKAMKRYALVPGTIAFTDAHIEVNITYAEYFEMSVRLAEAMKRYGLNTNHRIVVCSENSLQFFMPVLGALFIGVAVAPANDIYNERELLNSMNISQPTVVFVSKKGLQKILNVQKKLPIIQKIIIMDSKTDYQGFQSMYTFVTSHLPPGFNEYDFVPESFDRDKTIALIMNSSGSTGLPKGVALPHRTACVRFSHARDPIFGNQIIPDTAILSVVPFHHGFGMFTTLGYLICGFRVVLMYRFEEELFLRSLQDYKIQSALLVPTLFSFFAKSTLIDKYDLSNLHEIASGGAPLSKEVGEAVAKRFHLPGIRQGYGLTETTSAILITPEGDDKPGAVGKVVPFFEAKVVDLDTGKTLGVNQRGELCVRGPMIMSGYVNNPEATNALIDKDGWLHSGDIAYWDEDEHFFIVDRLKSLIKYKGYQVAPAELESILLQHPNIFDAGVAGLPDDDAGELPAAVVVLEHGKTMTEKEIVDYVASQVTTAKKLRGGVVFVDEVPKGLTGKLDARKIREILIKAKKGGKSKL
Sequence of human CYP2C19 (P33261 whole entry): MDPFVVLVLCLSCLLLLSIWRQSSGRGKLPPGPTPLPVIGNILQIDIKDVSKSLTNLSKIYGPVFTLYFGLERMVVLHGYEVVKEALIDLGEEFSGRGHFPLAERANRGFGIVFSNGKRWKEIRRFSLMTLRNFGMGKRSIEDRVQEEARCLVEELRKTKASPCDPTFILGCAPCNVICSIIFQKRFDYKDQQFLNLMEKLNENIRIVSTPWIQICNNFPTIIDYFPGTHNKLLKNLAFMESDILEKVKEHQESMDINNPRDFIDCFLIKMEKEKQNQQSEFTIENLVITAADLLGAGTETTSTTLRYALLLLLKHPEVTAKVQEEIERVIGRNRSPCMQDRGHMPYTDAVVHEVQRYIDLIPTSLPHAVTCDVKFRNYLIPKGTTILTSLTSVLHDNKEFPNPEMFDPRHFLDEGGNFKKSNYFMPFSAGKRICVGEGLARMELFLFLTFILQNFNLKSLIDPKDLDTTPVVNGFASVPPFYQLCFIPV
Sequence of human CYP2D6 (P10635 whole entry): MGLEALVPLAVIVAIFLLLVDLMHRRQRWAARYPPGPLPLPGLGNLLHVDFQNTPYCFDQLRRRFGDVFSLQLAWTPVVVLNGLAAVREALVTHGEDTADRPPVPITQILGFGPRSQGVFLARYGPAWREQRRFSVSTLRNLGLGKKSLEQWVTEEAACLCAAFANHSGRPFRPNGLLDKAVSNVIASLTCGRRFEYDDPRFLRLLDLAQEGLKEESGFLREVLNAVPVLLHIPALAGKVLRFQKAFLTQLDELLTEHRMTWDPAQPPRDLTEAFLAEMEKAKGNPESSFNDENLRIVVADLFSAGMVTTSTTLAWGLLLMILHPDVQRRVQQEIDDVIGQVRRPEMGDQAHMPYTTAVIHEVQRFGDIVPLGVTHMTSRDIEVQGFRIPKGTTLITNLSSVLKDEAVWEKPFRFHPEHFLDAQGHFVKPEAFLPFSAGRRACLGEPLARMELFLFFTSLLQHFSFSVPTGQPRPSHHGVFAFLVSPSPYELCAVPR
Sequence of CYP3A4 (P08684 whole entry): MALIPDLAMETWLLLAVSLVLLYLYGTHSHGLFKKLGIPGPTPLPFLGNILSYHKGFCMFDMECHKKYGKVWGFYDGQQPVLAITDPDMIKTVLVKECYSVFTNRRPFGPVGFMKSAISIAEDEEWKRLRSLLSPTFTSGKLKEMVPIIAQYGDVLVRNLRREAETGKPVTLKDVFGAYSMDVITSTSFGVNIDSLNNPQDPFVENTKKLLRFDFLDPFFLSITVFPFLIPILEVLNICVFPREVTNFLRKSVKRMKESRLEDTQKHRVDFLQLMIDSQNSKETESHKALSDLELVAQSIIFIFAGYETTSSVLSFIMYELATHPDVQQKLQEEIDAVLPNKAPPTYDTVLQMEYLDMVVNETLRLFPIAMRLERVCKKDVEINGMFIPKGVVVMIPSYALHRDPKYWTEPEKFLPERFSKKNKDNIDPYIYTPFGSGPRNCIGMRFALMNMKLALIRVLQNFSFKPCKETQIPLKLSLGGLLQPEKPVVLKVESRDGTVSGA

In the case of `CC(=O)OC1(c2ccccc2)CCN(CCc2ccccc2)CC1`, the “CYP2D6 Efficacy” value at human CYP2D6 was 0.57 ± 0.14 (-105 ± 2) %. The figures for the IC50 against human CYP2D6, at human CYP2C9 and on human CYP2C19 were 0.57 µM, 53.2 µM and 36.6 µM, respectively. Moreover, the “CYP1A2 IC50 (half-maximal inhibitory concentration)” value on human CYP1A2 is “Inactive”. Moreover, the AC50 worked out at 40.9 µM on CYP3A4, 53.2 µM on human CYP2C9 and 36.6 µM at human CYP2C19. Also, the “CYP3A4 IC50 (half-maximal inhibitory concentration)” value at CYP3A4 is 40.89 ± 0 (145 ± 9) µM. Besides, the “Luciferase IC50 (half-maximal inhibitory concentration)” value in series [1] is “Inactive”.

Regarding `FC(F)(F)c1ccccc1-n1ccnc1`, the IC50 against human CYP2D6 was 2.28 µM; at human CYP1A2, 4.14 µM; on CYP3A4, 0.44 µM; against human CYP2C9, 8.39 µM. The “Luciferase IC50 (half-maximal inhibitory concentration)” value in series [1] is on record as “Inactive”. In addition, the “CYP2C19 Efficacy” value at human CYP2C19 is listed as 9.3 ± 5.41 (-172 ± 73) %.

Turning to `CSc1ccc(C(=O)C(C)(C)N2CCOCC2)cc1`, the IC50 on human CYP2D6 was found to be 2.53 µM; at human CYP1A2 it was 40.1 µM; against CYP3A4, 3.18 µM; on human CYP2C9, 23.2 µM. Besides, the “Luciferase IC50 (half-maximal inhibitory concentration)” value in series [1] is given as “Inactive”. For the same compound, the “CYP2C19 Efficacy” value on human CYP2C19 is reported as 0.94 ± 0.32 (-142 ± 3) %.

On human CYP2D6, `C[N+](C)(CCOc1ccccc1)Cc1cccs1.[I-]` yielded an IC50 of 0.15 µM. In addition, at human CYP1A2, the “CYP1A2 IC50 (half-maximal inhibitory concentration)” value is listed as “Inactive”. Besides, the “CYP3A4 IC50 (half-maximal inhibitory concentration)” value at CYP3A4 was “Inactive”. Further, in series [1], the “Luciferase IC50 (half-maximal inhibitory concentration)” value is “Inactive”. In addition, on human CYP2C9, the “CYP2C9 IC50 (half-maximal inhibitory concentration)” value was “Inactive”. Besides, the “CYP2C19 IC50 (half-maximal inhibitory concentration)” value at human CYP2C19 is recorded as “Inactive”.

In the case of `COC(=O)c1c(C)cc(O)c(C)c1O`, the IC50 against human CYP2D6 worked out at 33 µM; on human CYP1A2 it was 0.24 µM; against CYP3A4, 53.2 µM; on human CYP2C9, 50.2 µM. For the same compound, the “Luciferase IC50 (half-maximal inhibitory concentration)” value in series [1] is reported as “Inactive”. Besides, the “CYP2C19 Efficacy” value on human CYP2C19 is recorded as 6.41 ± 1.34 (-140 ± 12) %.

As for `CCCCCCCC[N+](C)(CCCCCCCC)CCCCCCCC.O=S(=O)([O-])C(F)(F)F`, the IC50 at human CYP2D6 is 0.19 µM; on human CYP1A2, 47.6 µM; against CYP3A4, 3.7 µM; at human CYP2C9 it was 28.3 µM; against human CYP2C19, 12.9 µM. In addition, in series [1], the “Luciferase IC50 (half-maximal inhibitory concentration)” value was “Inactive”.

Turning to `CCCCCCCCCCCCCCCCCC[N+](C)(C)Cc1ccccc1.[Cl-]`, the “CYP2D6 Efficacy” value on human CYP2D6 is reported as 0.67 ± 0.43 (-99 ± 3) %. Moreover, the “CYP1A2 Efficacy” value on human CYP1A2 is 80.42 ± 0 (-111 ± 16) %. For the same compound, the results for the IC50 (on CYP3A4; in series [1] (read-out: Luciferase IC50)) were 45.9 µM and 87 µM, respectively. Moreover, on human CYP2C9, the “CYP2C9 Efficacy” value is 38.84 ± 2.53 (-102 ± 5) %. Besides, the “CYP2C19 Efficacy” value on human CYP2C19 is 48.63 ± 14.39 (-147 ± 23) %.

As for `CCCC[N+](C)(CCCC)CCCC.O=S(=O)([N-]S(=O)(=O)C(F)(F)F)C(F)(F)F`, the IC50 against human CYP2D6 worked out at 0.48 µM; on human CYP1A2, 50.6 µM; against CYP3A4 it was 67.4 µM; against human CYP2C9, 5.83 µM. Besides, the “Luciferase IC50 (half-maximal inhibitory concentration)” value in series [1] is “Inactive”. The “CYP2C19 IC50 (half-maximal inhibitory concentration)” value at human CYP2C19 is given as “Inactive”.

Turning to `CCCCCCCCCCCCCC[P+](CCCC)(CCCC)CCCC.CCCCCCCCCCCCc1ccc(S(=O)(=O)[O-])cc1`, at human CYP2D6, the “CYP2D6 Efficacy” value is listed as 0.21 ± 0.10 (-107 ± 3) %, the “CYP2D6 Efficacy (in parenthesis)” value is 0.21 ± 0.1 (-107 ± 3) % and the IC50 is 0.21 µM. Also, on human CYP1A2, the “CYP1A2 AC50 (half-maximal activity concentration)” value is “Inconclusive inhibitor”, the “CYP1A2 Efficacy (in parenthesis)” value is given as 24.26 ± 16.34 (-39 ± 1) % and the IC50 stood at 24.3 µM. In addition, at CYP3A4, half-maximal activity (AC50) was put at 7.93 µM, the “CYP3A4 Efficacy (in parenthesis)” value is 7.93 ± 2.21 (104 ± 17) % and the “CYP3A4 IC50 (half-maximal inhibitory concentration)” value is listed as 7.93 ± 2.21 (104 ± 17) µM. Also, in series [1], the “Luciferase IC50 (half-maximal inhibitory concentration)” value is recorded as “Inactive”. At human CYP2C9, the “CYP2C9 Efficacy” value is 15.74 ± 3.82 (-84 ± 8) %, the “CYP2C9 Efficacy (in parenthesis)” value is 15.74 ± 3.82 (-84 ± 8) % and the IC50 was found to be 15.7 µM. Besides, on human CYP2C19, the “CYP2C19 Efficacy” value is given as 21.96 ± 3.74 (-142 ± 38) %, the “CYP2C19 Efficacy (in parenthesis)” value is 21.96 ± 3.74 (-142 ± 38) % and the IC50 turned out to be 22 µM.

Consider `CCCCCCCCCCCCCC[P+](CCCCCC)(CCCCCC)CCCCCC.O=S(=O)([N-]S(=O)(=O)C(F)(F)F)C(F)(F)F`, for which the IC50 came to 0.25 µM on human CYP2D6; 37 µM at human CYP1A2; 3.13 µM against CYP3A4; 6.41 µM against human CYP2C9; 43.7 µM against human CYP2C19. Also, the “Luciferase IC50 (half-maximal inhibitory concentration)” value in series [1] is reported as “Inactive”.

In the case of `COC(=O)C1=C(C)NC(C)=C(C(=O)O[C@@H]2CCCN(Cc3ccccc3)C2)[C@@H]1c1cccc([N+](=O)[O-])c1.Cl` (racemic) [rac Benidipine hydrochloride], the IC50 against human CYP2D6 stood at 13.6 µM; against human CYP1A2 it was 25.2 µM; against CYP3A4, 0.84 µM; at human CYP2C9, 0.75 µM; at human CYP2C19 it was 6.53 µM. In series [1], the “Luciferase IC50 (half-maximal inhibitory concentration)” value is recorded as “Inactive”.

On to `Cl.OC(CNCC(O)C1CCc2cc(F)ccc2O1)C1CCc2cc(F)ccc2O1` (racemic) [rac Nebivolol hydrochloride], for which, at human CYP2D6, the “CYP2D6 Efficacy” value is 0.25 ± 0.05 (-104 ± 2) % and the IC50 was 0.25 µM. In addition, at human CYP1A2, the “CYP1A2 IC50 (half-maximal inhibitory concentration)” value is “Inactive”. Moreover, at CYP3A4, half-maximal activity (AC50) was put at 16.1 µM and the “CYP3A4 IC50 (half-maximal inhibitory concentration)” value was 16.12 ± 1.09 (65 ± 10) µM. In series [1], the “Luciferase IC50 (half-maximal inhibitory concentration)” value is on record as “Inactive”. In addition, the “CYP2C9 IC50 (half-maximal inhibitory concentration)” value on human CYP2C9 was “Inactive”. On human CYP2C19, the “CYP2C19 Efficacy” value is 41.28 ± 3.36 (-60 ± 3) % and the IC50 was 41.3 µM.

Regarding `CC(=C(CCOC(=O)C(C)C)SSC(CCOC(=O)C(C)C)=C(C)N(C=O)Cc1cnc(C)nc1N)N(C=O)Cc1cnc(C)nc1N` (stereo in doubt) [Bisibutiamine], on human CYP2D6, the “CYP2D6 IC50 (half-maximal inhibitory concentration)” value is on record as “Inactive”. Besides, at human CYP1A2, the “CYP1A2 IC50 (half-maximal inhibitory concentration)” value is reported as “Inactive”. This compound came in with an IC50 on CYP3A4 of 0.36 µM. The “Luciferase IC50 (half-maximal inhibitory concentration)” value in series [1] is reported as “Inactive”. Also, the “CYP2C9 IC50 (half-maximal inhibitory concentration)” value at human CYP2C9 was “Inactive”. Also, at human CYP2C19, the “CYP2C19 IC50 (half-maximal inhibitory concentration)” value is “Inactive”.

For `N=C(Nc1ccccc1)Nc1ccccc1` [1,3-Diphenylguanidine], the IC50 stood at 0.2 µM on human CYP2D6; 30.8 µM on human CYP1A2; 51.9 µM against CYP3A4; 53.1 µM at human CYP2C9; 45 µM at human CYP2C19. Besides, in series [1], the “Luciferase IC50” value is reported as “Inactive”.

As for `CC[N+]1(C)CCCC1.[I-]` [1-Ethyl-1-methylpyrrolidinium iodide], the IC50 against human CYP2D6 came to 0.01 µM; against human CYP1A2 it was 75.5 µM; at human CYP2C19 it was 26.7 µM. In addition, the “CYP3A4 IC50” value on CYP3A4 was “Inactive”. Moreover, the “Luciferase IC50” value in series [1] was “Inactive”. The “CYP2C9 IC50” value at human CYP2C9 was “Inactive”.

Regarding `CCCCCCCCCCCCCCCCn1cc[n+](C)c1.[Cl-]` [1-Hexadecyl-3-methylimidazolium chloride], on human CYP2D6, the “CYP2D6 Efficacy (in parenthesis)” value is given as 0.38 ± 0.13 (-102 ± 3) % and the IC50 is 0.38 µM. In addition, at human CYP1A2, the “CYP1A2 Efficacy (in parenthesis)” value was 69.7 ± 29.29 (-90 ± 28) % and the IC50 was determined as 69.7 µM. Further, at CYP3A4, the “CYP3A4 Efficacy (in parenthesis)” value is recorded as 63.62 ± 15.46 (-70 ± 19) % and the IC50 is 63.6 µM. The “Luciferase IC50 (half-maximal inhibitory concentration)” value in series [1] is “Inactive”. For the same compound, at human CYP2C9, the “CYP2C9 Efficacy (in parenthesis)” value was 55.36 ± 23.27 (-121 ± 6) % and the IC50 was 55.4 µM. At human CYP2C19, the “CYP2C19 Efficacy (in parenthesis)” value is given as 52.99 ± 35.71 (-145 ± 35) % and the IC50 stood at 53 µM.

On to `O=C(Nc1ccccc1SSc1ccccc1NC(=O)c1ccccc1)c1ccccc1` [2,2'-Dibenzoylaminodiphenyl disulfide], for which, on human CYP2D6, the “CYP2D6 Efficacy (in parenthesis)” value is 37.5 ± 45.35 (15 ± 47) % and the “CYP2D6 IC50 (half-maximal inhibitory concentration)” value was 37.5 ± 45.35 (15 ± 47) µM. At human CYP1A2, the “CYP1A2 Efficacy (in parenthesis)” value is listed as 6.73 ± 1.52 (-88 ± 2) % and the IC50 was 6.73 µM. Further, on CYP3A4, the “CYP3A4 Efficacy (in parenthesis)” value is on record as 3.23 ± 1.25 (-75 ± 7) % and the IC50 amounted to 3.23 µM. In addition, the “Luciferase Efficacy (in parenthesis)” value in series [1] was 3.42 ± 1.53 (-57 ± 5) %. Moreover, in series [1] (read-out: Luciferase IC50 (half-maximal inhibitory concentration)), the IC50 was determined as 3.42 µM. Moreover, at human CYP2C9, the “CYP2C9 Efficacy (in parenthesis)” value is given as 0.57 ± 0.07 (-99 ± 3) % and the IC50 came out at 0.57 µM. Moreover, at human CYP2C19, the “CYP2C19 Efficacy (in parenthesis)” value was 3.94 ± 2.15 (-155 ± 9) % and the IC50 turned out to be 3.94 µM.
